Experimental data reported in patent US8536180B2, “Pyrimidine inhibitors of kinase activity” (AbbVie Inc., priority 2009, dated 2013).

Biological target: T1, C-terminal GST-tagged, recombinant, human IGF-1R, amino acids 954-1367 (Homo sapiens, UniProt P08069)
T1 construct: human IGF-1R, amino acids 954-1367 expressed by baculovirus in Sf21 cells; GST (C); purchased Cell Signaling Technology; host or cells: baculovirus in Sf21 cells
Assay: IGF-1R homogenous time-resolved fluorescence (HTRF) in vitro kinase assay
Format: biochemical
Conditions: IGF-1R kinase, ATP 50 μM final, biotinylated peptide substrate 0.5 μM, 60 minutes at room temperature
Protocol: IGF-1R kinase activity was assayed by a homogenous time-resolved fluorescence (HTRF) in vitro kinase assay (Mathis, G., HTRF(R) Technology. J Biomol Screen, 1999. 4(6): p. 309-314). Specifically, 10 μL C-terminal GST-tagged, recombinant, human IGF-1R, amino acids 954-1367 expressed by baculovirus in Sf21 cells (Cell Signaling Technology) was mixed with 10 μL inhibitor (various concentrations, 2% final DMSO) and 10 μL of ATP (50 μM final concentration) in reaction buffer (50 mM HEPES, pH 7.5, 10 mM MgCl2, 2 mM MnCl2, 0.1% BSA and 1 mM DTT, 40 μL final volume). The reaction was initiated by addition of 10 μL of biotinylated peptide substrate (Biotin-Ahx-[…], 0.5 μM final concentration) in a black 384-well plate (Packard). After 60 minutes incubation at room temperature, the reaction was quenched by addition of 60 μL stop/revelation buffer to give 30 mM EDTA, 1 μg/mL streptavidin-APC (Prozyme), 50 ng/mL anti-phosphotyrosine mAb PT66-K Europium Cryptate, 30 mM HEPES, pH 7.5, 120 mM KF, 0.005% Tween-20, 0.05% BSA). The quenched reaction was allowed to stand at room temperature for 1 hour and then read in a time-resolved fluorescence detector (Envision, Perkin Elmer) at 615 nm and 665 nm simultaneously. The ratio between the signal of 615 nm and 665 nm was used in the calculation of the IC50.

T1 sequence (P08069 954-1367): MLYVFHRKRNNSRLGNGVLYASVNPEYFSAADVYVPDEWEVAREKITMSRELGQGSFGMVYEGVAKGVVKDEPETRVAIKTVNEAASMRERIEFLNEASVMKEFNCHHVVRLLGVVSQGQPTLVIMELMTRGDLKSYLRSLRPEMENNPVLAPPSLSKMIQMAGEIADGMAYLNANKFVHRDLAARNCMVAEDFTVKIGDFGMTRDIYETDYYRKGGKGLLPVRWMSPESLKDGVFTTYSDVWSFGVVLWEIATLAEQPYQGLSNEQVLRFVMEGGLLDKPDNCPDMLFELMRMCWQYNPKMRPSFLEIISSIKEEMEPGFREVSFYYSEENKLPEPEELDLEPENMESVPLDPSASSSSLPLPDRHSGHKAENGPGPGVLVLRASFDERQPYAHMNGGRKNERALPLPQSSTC

Q: For `O=C1CCCN1c1cccc(Nc2nccc(-c3c(-c4ccc5[nH]c(Cc6ccccc6)nc5c4)nc4ccccn34)n2)c1` [Example 1, 1-[3-({4-[2-(2-benzyl-1H-benzimidazol-5-yl)imidazo[1,2-a]pyridin-3-yl]pyrimidin-2-yl}amino)phenyl]pyrrolidin-2-one], which IC50 is on record?
A: The IC50 was 10 to 50 nM.

Q: How did the IC50 turn out when `CN(C)CCc1cccc(Nc2nccc(-c3c(-c4ccc5nc(Cc6ccccc6)[nH]c5c4)nc4ccccn34)n2)c1` [Example 2, 4-[2-(2-benzyl-1H-benzimidazol-6-yl)imidazo[1,2-a]pyridin-3-yl]-N-{3-[2-(dimethylamino)ethyl]phenyl}pyrimidin-2-amine] was run?
A: The IC50 was less than 10 nM.

Q: `COc1ccccc1Cc1nc2cc(-c3nc4ccccn4c3-c3ccnc(Nc4cccc(CCN(C)C)c4)n3)ccc2[nH]1` [Example 3, N-{3-[2-(dimethylamino)ethyl]phenyl}-4-{2-[2-(2-methoxybenzyl)-1H-benzimidazol-5-yl]imidazo[1,2-a]pyridin-3-yl}pyrimidin-2-amine] was tested. Which IC50 did it give?
A: Its IC50 is less than 10 nM.

Q: For `c1ccc(Cc2nc3cc(-c4nc5ccccn5c4-c4ccnc(Nc5ccccc5)n4)ccc3[nH]2)cc1` [Example 4, 4-[2-(2-benzyl-1H-benzimidazol-5-yl)imidazo[1,2-a]pyridin-3-yl]-N-phenylpyrimidin-2-amine], which IC50 is on record?
A: The IC50 was 10 to 50 nM.

Q: How did the IC50 turn out when `CN(C)CCc1cccc(Nc2nccc(-c3c(-c4ccc5[nH]c(Cc6ccccc6Cl)nc5c4)nc4ccccn34)n2)c1` [Example 5, 4-{2-[2-(2-chlorobenzyl)-1H-benzimidazol-5-yl]imidazo[1,2-a]pyridin-3-yl}-N-{3-[2-(dimethylamino)ethyl]phenyl}pyrimidin-2-amine] was run?
A: The IC50 was less than 10 nM.

Q: With `CN(C)CCc1cccc(Nc2nccc(-c3c(-c4ccc5[nH]c(Cc6ccccc6C(F)(F)F)nc5c4)nc4ccccn34)n2)c1` [Example 6, N-{3-[2-(dimethylamino)ethyl]phenyl}-4-(2-{2-[2-(trifluoromethyl)benzyl]-1H-benzimidazol-5-yl}imidazo[1,2-a]pyridin-3-yl)pyrimidin-2-amine] as the molecule, how does the IC50 read?
A: Its IC50 is less than 10 nM.

Q: For `CN(C)CCc1cccc(Nc2nccc(-c3c(-c4ccc5nc(Cc6ccccc6)[nH]c5c4)nc4sccn34)n2)c1` [Example 7, 4-[6-(2-benzyl-1H-benzimidazol-6-yl)imidazo[2,1-b][1,3]thiazol-5-yl]-N-{3-[2-(dimethylamino)ethyl]phenyl}pyrimidin-2-amine], which IC50 is on record?
A: The IC50 was less than 10 nM.

Q: Which IC50 does the source give for `COc1ccccc1Cc1nc2ccc(-c3nc4sccn4c3-c3ccnc(Nc4cccc(CCN(C)C)c4)n3)cc2[nH]1` [Example 8, N-{3-[2-(dimethylamino)ethyl]phenyl}-4-{6-[2-(2-methoxybenzyl)-1H-benzimidazol-6-yl]imidazo[2,1-b][1,3]thiazol-5-yl}pyrimidin-2-amine] here?
A: The IC50 was less than 10 nM.

Q: `CN(C)CCc1cccc(Nc2nccc(-c3c(-c4ccc5nc(Cc6ccccc6Cl)[nH]c5c4)nc4sccn34)n2)c1` [Example 9, 4-{6-[2-(2-chlorobenzyl)-1H-benzimidazol-6-yl]imidazo[2,1-b][1,3]thiazol-5-yl}-N-{3-[2-(dimethylamino)ethyl]phenyl}pyrimidin-2-amine] was tested. Which IC50 did it give?
A: Its IC50 is less than 10 nM.

Q: For `CN(C)CCc1cccc(Nc2nccc(-c3c(-c4ccc5nc(CCc6ccccc6)[nH]c5c4)nc4ccccn34)n2)c1` [Example 10, N-{3-[2-(dimethylamino)ethyl]phenyl}-4-{2-[2-(2-phenylethyl)-1H-benzimidazol-6-yl]imidazo[1,2-a]pyridin-3-yl}pyrimidin-2-amine], which IC50 is on record?
A: The IC50 was 10 to 50 nM.

Q: `c1ccc(Nc2nccc(-c3c(-c4ccc5nc(-c6ccccc6)[nH]c5c4)nc4ccccn34)n2)cc1` [Example 11, N-phenyl-4-[2-(2-phenyl-1H-benzimidazol-6-yl)imidazo[1,2-a]pyridin-3-yl]pyrimidin-2-amine] was tested. Which IC50 did it give?
A: Its IC50 is 101 to 500 nM.

Q: For `CN(C)CCc1cccc(Nc2nccc(-c3c(-c4ccc5nc(Nc6ccccc6)[nH]c5c4)nc4ccccn34)n2)c1` [Example 12, 6-{3-[2-({3-[2-(dimethylamino)ethyl]phenyl}amino)pyrimidin-4-yl]imidazo[1,2-a]pyridin-2-yl}-N-phenyl-1H-benzimidazol-2-amine], which IC50 is on record?
A: The IC50 was less than 10 nM.

Q: How did the IC50 turn out when `CN(C)CCc1cccc(Nc2nccc(-c3c(-c4ccc5nc(-c6ccccc6)[nH]c5c4)nc4ccccn34)n2)c1` [Example 13, N-{3-[2-(dimethylamino)ethyl]phenyl}-4-[2-(2-phenyl-1H-benzimidazol-6-yl)imidazo[1,2-a]pyridin-3-yl]pyrimidin-2-amine] was run?
A: The IC50 was 10 to 50 nM.

Q: `COc1cc(N2CCOCC2)ccc1Nc1nccc(-c2c(-c3ccc4nc(Cc5ccccc5)[nH]c4c3)nc3ccccn23)n1` [Example 14, 4-[2-(2-benzyl-1H-benzimidazol-6-yl)imidazo[1,2-a]pyridin-3-yl]-N-(2-methoxy-4-morpholin-4-ylphenyl)pyrimidin-2-amine] was tested. Which IC50 did it give?
A: Its IC50 is less than 10 nM.

Q: For `COc1ccccc1Nc1nccc(-c2c(-c3ccc4nc(Cc5ccccc5)[nH]c4c3)nc3ccccn23)n1` [Example 15, 4-[2-(2-benzyl-1H-benzimidazol-6-yl)imidazo[1,2-a]pyridin-3-yl]-N-(2-methoxyphenyl)pyrimidin-2-amine], which IC50 is on record?
A: The IC50 was 51 to 100 nM.

Q: `CS(=O)(=O)c1cccc(Nc2nccc(-c3c(-c4ccc5nc(Cc6ccccc6)[nH]c5c4)nc4ccccn34)n2)c1` [Example 16, 4-[2-(2-benzyl-1H-benzimidazol-6-yl)imidazo[1,2-a]pyridin-3-yl]-N-[3-(methylsulfonyl)phenyl]pyrimidin-2-amine] was tested. Which IC50 did it give?
A: Its IC50 is 51 to 100 nM.

Q: How did the IC50 turn out when `CN(C)S(=O)(=O)c1cccc(Nc2nccc(-c3c(-c4ccc5nc(Cc6ccccc6)[nH]c5c4)nc4ccccn34)n2)c1` [Example 17, 3-({4-[2-(2-benzyl-1H-benzimidazol-6-yl)imidazo[1,2-a]pyridin-3-yl]pyrimidin-2-yl}amino)-N,N-dimethylbenzenesulfonamide] was run?
A: Its IC50 is 101 to 500 nM.

Q: How did the IC50 turn out when `CS(=O)(=O)c1ccc(Nc2nccc(-c3c(-c4ccc5nc(Cc6ccccc6)[nH]c5c4)nc4ccccn34)n2)cc1` [Example 18, 4-[2-(2-benzyl-1H-benzimidazol-6-yl)imidazo[1,2-a]pyridin-3-yl]-N-[4-(methylsulfonyl)phenyl]pyrimidin-2-amine] was run?
A: The IC50 was 51 to 100 nM.

Q: How did the IC50 turn out when `c1ccc(Nc2nccc(-c3c(-c4ccc5nc(Nc6ccccc6)[nH]c5c4)nc4ccccn34)n2)cc1` [Example 19, 6-[3-(2-anilinopyrimidin-4-yl)imidazo[1,2-a]pyridin-2-yl]-N-phenyl-1H-benzimidazol-2-amine] was run?
A: The IC50 was greater than 500 nM.

Q: For `COc1ccccc1Cc1nc2ccc(-c3nc4ccccn4c3-c3ccnc(Nc4ccc(N5CCOCC5)cc4OC)n3)cc2[nH]1` [Example 20, 4-{2-[2-(2-methoxybenzyl)-1H-benzimidazol-6-yl]imidazo[1,2-a]pyridin-3-yl}-N-(2-methoxy-4-morpholin-4-ylphenyl)pyrimidin-2-amine], which IC50 is on record?
A: Its IC50 is 51 to 100 nM.

Q: `COc1cc(N2CCOCC2)ccc1Nc1nccc(-c2c(-c3ccc4nc(Cc5c(F)cccc5F)[nH]c4c3)nc3ccccn23)n1` [Example 21, 4-{2-[2-(2,6-difluorobenzyl)-1H-benzimidazol-6-yl]imidazo[1,2-a]pyridin-3-yl}-N-(2-methoxy-4-morpholin-4-ylphenyl)pyrimidin-2-amine] was tested. Which IC50 did it give?
A: Its IC50 is 10 to 50 nM.

Q: `COc1cc(N2CCC(N3CCN(C)CC3)CC2)ccc1Nc1nccc(-c2c(-c3ccc4[nH]c(Cc5ccccc5)nc4c3)nc3ccccn23)n1` [Example 22, 4-[2-(2-benzyl-1H-benzimidazol-5-yl)imidazo[1,2-a]pyridin-3-yl]-N-{2-methoxy-4-[4-(4-methylpiperazin-1-yl)piperidin-1-yl]phenyl}pyrimidin-2-amine] was tested. Which IC50 did it give?
A: The IC50 was less than 10 nM.

Q: How did the IC50 turn out when `c1ccc(Cc2nc3ccc(-c4nc5sccn5c4-c4ccnc(Nc5ccccc5)n4)cc3[nH]2)cc1` [Example 23, 4-[6-(2-benzyl-1H-benzimidazol-6-yl)imidazo[2,1-b][1,3]thiazol-5-yl]-N-phenylpyrimidin-2-amine] was run?
A: Its IC50 is 51 to 100 nM.

Q: Which IC50 does the source give for `COc1ccccc1Nc1nccc(-c2c(-c3ccc4nc(Cc5ccccc5)[nH]c4c3)nc3sccn23)n1` [Example 24, 4-[6-(2-benzyl-1H-benzimidazol-6-yl)imidazo[2,1-b][1,3]thiazol-5-yl]-N-(2-methoxyphenyl)pyrimidin-2-amine] here?
A: Its IC50 is 10 to 50 nM.

Q: For `Cc1cc(Nc2nccc(-c3c(-c4ccc5nc(Cc6ccccc6)[nH]c5c4)nc4ccccn34)n2)n[nH]1` [Example 25, 4-[2-(2-benzyl-1H-benzimidazol-6-yl)imidazo[1,2-a]pyridin-3-yl]-N-(5-methyl-1H-pyrazol-3-yl)pyrimidin-2-amine], which IC50 is on record?
A: The IC50 was 51 to 100 nM.

Q: `c1ccc(Cc2nc3ccc(-c4nc5ccccn5c4-c4ccnc(Nc5cc(C6CC6)n[nH]5)n4)cc3[nH]2)cc1` [Example 26, 4-[2-(2-benzyl-1H-benzimidazol-6-yl)imidazo[1,2-a]pyridin-3-yl]-N-(3-cyclopropyl-1H-pyrazol-5-yl)pyrimidin-2-amine] was tested. Which IC50 did it give?
A: The IC50 was 10 to 50 nM.

Q: How did the IC50 turn out when `COc1cc(N2CCOCC2)ccc1Nc1nccc(-c2c(-c3ccc4nc(-c5ccccc5)[nH]c4c3)nc3ccccn23)n1` [Example 27, N-(2-methoxy-4-morpholin-4-ylphenyl)-4-[2-(2-phenyl-1H-benzimidazol-6-yl)imidazo[1,2-a]pyridin-3-yl]pyrimidin-2-amine] was run?
A: Its IC50 is 10 to 50 nM.
